How the values were obtained:
Type in all cases: in vivo, Wistar rats
[1] = system: streptozotocin-induced diabetic rats; test: Fasting blood glucose level, 30 days treatment; details: STZ diabetic rats, glibenclamide 1 mg/kg, Samples 1-3 100 mg/kg, Product-1 and -2 50 mg/kg, Product-3 10 mg/kg orally
Procedure: (§1) Adult Wistar rats weighing 200-250 gm were selected at random; the animals were kept in standard animal house conditions at 24±2° C., 65% relative humidity and 12 h light/dark cycle. After five days of acclimatisation, diabetes was induced by injecting streptozotocin 35 mg/kg dissolved in 0.1M citrate buffer of pH 4.5, intraperitoneally, as standardised in our laboratory. Five days after induction of diabetes (day 1 of the study), animals fasted for 12 hours and the fasting blood glucose level (FBG) was estimated for diagnosing diabetic rats. Animals having FBG more than 250 mg/dl were included in the study.
(§2) Six normal healthy rats were allocated to Group I; streptozotocin-induced diabetic rats were randomly allocated to Groups 2 to 9 with 6 rats in each group. The animals were treated for 30 days as per below experimental design:
(§3) Group 3—Positive control—diabetic animals administered with glibenclamide at 1 mg/kg Body wt orally for 30 days.
(§4) Group 4—diabetic animals administered with Sample 1 at 100 mg/kg Body wt orally for 30 days.
(§5) Group 5—diabetic animals administered with Sample 2 at 100 mg/kg Body wt orally for 30 days.
(§6) Group 6—diabetic animals administered with of Sample 3 at 100 mg/kg Body wt orally for 30 days.
(§7) Group 7—diabetic animals administered with Product-1 at 50 mg/kg Body wt orally for 30 days.
(§8) Group 8—diabetic animals administered with Product-2 at 50 mg/kg Body wt orally for 30 days.
(§9) Group 9—diabetic animals administered with of Product-3 at 10 mg/kg Body wt orally for 30 days.
FBG was measured on Day 0, Day 15 and Day 30. OGTT was also performed on Day 0, Day 15 and Day 30.

[2] = system: streptozotocin and HFD diabetic rats; test: Streptozotocin plus high fat diet Type 2 diabetes model, coated versus uncoated costus extract; details: STZ + HFD diabetic rats
Procedure: Wistar rats were selected at random; the animals were kept in standard animal house conditions at 24±2° C., 65% relative humidity and 12 h light/dark cycle. The animals were acclimatized for a period of five days and fed with standard pellet diet and water. Fasted male Wistar rats were intraperitoneally injected with freshly prepared solution of streptozotocin (STZ) (35 mg/kg). After injection, all the animals were continued on the standard rodent diet for 2 weeks. At the end of 2 weeks after STZ injection; 1 ml of blood was collected from retro-orbital plexus of each rat. Blood was allowed to clot for 30 min the serum was separated by centrifuging at 1008 G-force for 20 min at 8.0° C. in a cold centrifuge. The serum separated from the blood of each animal was used for the estimation of glucose. All the samples were analysed calorimetrically in Autoanalyzer (MERCK MICROLAB 300) using commercial kits. The development of hyperglycaemia in these rats was thus confirmed by measuring fasting blood glucose levels. The rats with the fasting PGL of ≥200 mg dl−1 were considered diabetic and selected for further dietary manipulation. 350 g of standard rodent diet was powdered and mixed with 60 g of lard, 45 g of yolk powder, and 45 g of plantation white sugar (HFD diet). The above mixture is pelleted and used to feed the rats for 2 weeks to induce diabetic dyslipidaemia. Required amount of the diet was freshly prepared on a daily basis. At the end of 2nd week the blood was collected from each animal for determination of glucose levels as described above.
After the second fasting blood glucose estimation, at the end of 4th week, the rats were divided into 6 groups of 6 rats each: Group-1 consisted of age-matched non-diabetic normal rats that neither received streptozotocin nor the high-fat diet and served as normal; Group 2 consisted of diabetic rats without any drug treatment and served as untreated control; Group 3 consisted of diabetic rats and received standard drug, Glibenclamide. Group 4 consisted of diabetic rats and received excipients. Group 5 consisted of diabetic rats and sample 2. Group 6 consisted of diabetic rats and product 2. The high fat diet was continued for the rest of the study duration.
Group 3—Diabetic, HFD administered group treated with Glibenclamide at 2.5 mg/Kg p.o. body weight.
Group 5—Diabetic, HFD administered group treated with sample 2 for at 40 mg/kg twice daily.
Group 6—Diabetic, HFD administered group treated with product-2 at 100 mg/kg twice daily.
Body weights were determined biweekly. At the end of experimental period, blood samples were collected to determine plasma glucose, insulin, leptin, glycosylated hemoglobin, triglycerides, total cholesterol, LDL, HDL and VLDL.

[3] = system: streptozotocin-induced diabetic rats; test: Oral glucose tolerance test on day 1, 15 and 30 of 30 days treatment; details: STZ diabetic rats, doses as in E42
Procedure: as §1, §2, §3, §4, §5, §6, §7, §8, §9
Oral glucose tolerance test (OGTT) was performed following a glucose challenge of 2 g/kg by oral gavages. It was to test the ability of body cells to absorb glucose after you ingest a given amount of sugar. Blood glucose was recorded at 30 min (PPG1), 60 min (PPG2), 120 min (PPG3) and 180 min (PPG4), after the glucose challenge on day 1, day 15 and day 30 of the study.

[4] = system: streptozotocin-induced diabetic rats; test: Postprandial glucose levels (OGTT) of costus in various dosages; details: STZ diabetic rats, 1 mg/kg oral
Procedure: Adult Wistar rats weighing 200-250 gm were selected at random; the animals were kept in standard animal house conditions at 24±2° C., 65% relative humidity and 12 h light/dark cycle. The animals were acclimatized for a period of five days and fed with standard pellet diet and water. Six healthy rats were separated at random from the lot and diabetes was induced in rest by a single intra-peritoneal injection of streptozotocin (STZ) at 35 mg/kg. Fasting blood sugar (FBS) was measured after seven days of STZ injection and rats having FBS more than 200 mg/dl were considered as diabetic. The diabetic rats were separated out and randomly divided into 11 groups having six rats in each. Six normal healthy rats were allocated to Group I; STZ induced diabetic rats were randomly allocated to Groups 2 to 12.
Oral glucose tolerance test (OGTT) was performed following a glucose challenge of 2 g/kg by oral gavages. It was to test the ability of body cells to absorb glucose after you ingest a given amount of sugar. Blood glucose was recorded at 30 min, 60 min, 120 min and 180 min, after the glucose challenge on day of the study.
Just after glucose challenge test a specific Doses of Sample-1 (from example 1) and Product-2 (from example 4) were administered through oral gavages. The dosages for Sample-1 and Product-1 were in a range of 25 mg/kg Body wt to 300 mg/kg Body wt. In one of the groups animals were administered with glibenclamide.
Group 2—Positive control—diabetic animals administered with glibenclamide at 1 mg/kg Body wt orally for 30 days.
Group 3—diabetic animals administered with Sample-2 at 25 mg/kg Body wt orally for 30 days.
Group 4—diabetic animals administered with Sample-2 at 50 mg/kg Body wt orally for 30 days.
Group 5—diabetic animals administered with Sample-2 at 75 mg/kg Body wt orally for 30 days.
Group 6—diabetic animals administered with Sample-2 at 100 mg/kg Body wt orally for 30 days.
Group 7—diabetic animals administered with Sample-2 at 150 mg/kg Body wt orally for 30 days.
Group 8—diabetic animals administered with Sample-2 at 300 mg/kg Body wt orally for 30 days.
Group 9—diabetic animals administered with Product-2 at 25 mg/kg Body wt orally for 30 days.
Group 10—diabetic animals administered with Product-2 at 50 mg/kg Body wt orally for 30 days.
Group 11—diabetic animals administered with Product-2 at 75 mg/kg Body wt orally for 30 days.
Group 12—diabetic animals administered with Product-2 at 100 mg/kg Body wt orally for 30 days.
Group 13—diabetic animals administered with Product-2 at 150 mg/kg Body wt orally for 30 days.

[5] = system: high-fat diet-induced insulin resistance rats; test: High fat diet-induced insulin resistance model (Type 2 diabetes); details: HFD rats
Procedure: The study was designed to evaluate the effect of different fractions and compositions of costus on high fat-induced resistance Type-2 diabetic model (HFD). Adult Wistar rats were allowed free access to food and water. They were housed under identical standard conditions. The animals were kept for acclimatisation for a period of 7 days. After 7 days, the animals were randomly divided into six groups of six rats each. The normal control group was treated with normal regular diet and the rest of the animals were fed with high-fat diet for 6 weeks. After 6 weeks, Sample-1, Sample-3, and Product-2 were administered at a specific dosage as per their groups for 6 consecutive weeks. The experimental design was as follows:
as §3
Group 4—diabetic animals administered with Sample-1 at 300 mg/kg Body wt orally for 30 days.
Group 5—diabetic animals administered with Sample-3 at 100 mg/kg Body wt orally for 30 days.
Group 6—diabetic animals administered with of Product-2 at 50 mg/kg Body wt orally for 30 days.
Body weights were determined weekly. At the end of experimental period, blood samples were collected to determine plasma glucose, insulin, glycosylated haemoglobin, triglycerides, and total cholesterol, LDL, HDL and VLDL.

[6] = end of experimental period, doses as in E59

Question: How did the “Fasting blood glucose level 0th day” value ([1]; day 0) turn out when `COc1ccc(Cl)cc1C(=O)NCCc1ccc(S(=O)(=O)NC(=O)NC2CCCCC2)cc1` [glibenclamide] was run?
Answer: 388 mg/dL

Question: And the “Fasting blood glucose level 15th day” value ([1]; day 15)?
Answer: 266 mg/dL

Question: And the “Fasting blood glucose level 30th day” value ([1]; day 30)?
Answer: 142 mg/dL

Question: What about the “Glycosylated Hb” value ([2]; after 28 days, doses as in E92) of the same compound?
Answer: 0.5 % of total Hb

Question: And the HDL ([2]; after 28 days, doses as in E92)?
Answer: 25 mg/dL

Question: What about the LDL ([2]; after 28 days, doses as in E92) of the same compound?
Answer: 92 mg/dL

Question: What about the TC ([2]; after 28 days, doses as in E92) of the same compound?
Answer: 136.4 mg/dL

Question: What about the TG ([2]; after 28 days, doses as in E92) of the same compound?
Answer: 97 mg/dL

Question: And the VLDL ([2]; after 28 days, doses as in E92)?
Answer: 19.4 mg/dL

Question: And the “Body weight at biweekly interval, 0” value ([2]; interval 0, Glibenclamide 2.5 mg/kg p.o., sample 2 40 mg/kg, product-2 100 mg/kg twice daily)?
Answer: 168 grams

Question: What about the “Body weight at biweekly interval, 2” value ([2]; interval 2, doses as in E92) of the same compound?
Answer: 174 grams

Question: And the “Body weight at biweekly interval, 4” value ([2]; interval 4, doses as in E92)?
Answer: 180 grams

Question: And the “Body weight at biweekly interval, 6” value ([2]; interval 6, doses as in E92)?
Answer: 187 grams

Question: And the “Body weight at biweekly interval, 8” value ([2]; interval 8, doses as in E92)?
Answer: 192 grams

Question: And the Insulin ([2]; serum, after 28 days, doses as in E92)?
Answer: 1.58 ng/mL

Question: What about the “PPG 30 min, Day 1” value ([3]; Day 1, 30 min after 2 g/kg glucose) of the same compound?
Answer: 294 mg/dL

Question: What about the “PPG 60 min, Day 1” value ([3]; Day 1, 60 min after 2 g/kg glucose) of the same compound?
Answer: 232 mg/dL

Question: And the “PPG 120 min, Day 1” value ([3]; Day 1, 120 min after 2 g/kg glucose)?
Answer: 226 mg/dL

Question: And the “PPG 180 min, Day 1” value ([3]; Day 1, 180 min after 2 g/kg glucose)?
Answer: 158 mg/dL

Question: What about the “PPG 30 min, Day 15” value ([3]; Day 15, 30 min after 2 g/kg glucose) of the same compound?
Answer: 285 mg/dL

Question: What about the “PPG 60 min, Day 15” value ([3]; Day 15, 60 min after 2 g/kg glucose) of the same compound?
Answer: 225 mg/dL

Question: And the “PPG 120 min, Day 15” value ([3]; Day 15, 120 min after 2 g/kg glucose)?
Answer: 219 mg/dL

Question: And the “PPG 180 min, Day 15” value ([3]; Day 15, 180 min after 2 g/kg glucose)?
Answer: 153 mg/dL

Question: And the “PPG 30 min, Day 30” value ([3]; Day 30, 30 min after 2 g/kg glucose)?
Answer: 276 mg/dL

Question: And the “PPG 60 min, Day 30” value ([3]; Day 30, 60 min after 2 g/kg glucose)?
Answer: 218 mg/dL

Question: And the “PPG 120 min, Day 30” value ([3]; Day 30, 120 min after 2 g/kg glucose)?
Answer: 212 mg/dL

Question: And the “PPG 180 min, Day 30” value ([3]; Day 30, 180 min after 2 g/kg glucose)?
Answer: 148 mg/dL

Question: And the “Postprandial glucose level 30 min” value ([4]; 30 min after 2 g/kg glucose)?
Answer: 294 mg/dL

Question: What about the “Postprandial glucose level 60 min” value ([4]; 60 min after 2 g/kg glucose) of the same compound?
Answer: 170 mg/dL

Question: What about the “Postprandial glucose level 120 min” value ([4]; 120 min after 2 g/kg glucose) of the same compound?
Answer: 127 mg/dL

Question: What about the “Postprandial glucose level 180 min” value ([4]; 180 min after 2 g/kg glucose) of the same compound?
Answer: 101 mg/dL

Question: And the Blood glucose [5, 6]?
Answer: 142 mg/dL

Question: What about the “Glycosylated Hb” value [5, 6] of the same compound?
Answer: 0.5 % of total Hb

Question: What about the HDL [5, 6] of the same compound?
Answer: 27 mg/dL

Question: What about the LDL [5, 6] of the same compound?
Answer: 55 mg/dL

Question: What about the TC [5, 6] of the same compound?
Answer: 91.4 mg/dL

Question: And the TG [5, 6]?
Answer: 47 mg/dL

Question: And the VLDL [5, 6]?
Answer: 9.4 mg/dL

Question: And the Insulin ([5]; serum, end of experimental period, doses as in E59)?
Answer: 1.7 ng/mL

Question: And the “Body weight, week 0” value ([5]; week 0, glibenclamide 1 mg/kg, Sample-1 300 mg/kg, Sample-3 100 mg/kg, Product-2 50 mg/kg orally)?
Answer: 216 grams

Question: And the “Average Body weight at weekly interval, week 2” value ([5]; week 2, doses as in E59)?
Answer: 259 grams

Question: And the “Average Body weight at weekly interval, week 3” value ([5]; week 3, doses as in E59)?
Answer: 274 grams

Question: And the “Average Body weight at weekly interval, week 4” value ([5]; week 4, doses as in E59)?
Answer: 280 grams

Question: And the “Average Body weight at weekly interval, week 5” value ([5]; week 5, doses as in E59)?
Answer: 270 grams

Question: And the “Average Body weight at weekly interval, week 6” value ([5]; week 6, doses as in E59)?
Answer: 248 grams
